Results from patent US7598382B2, “Aryl substituted imidazoquinolines” (Coley Pharmaceutical Group, Inc., priority 2002, dated 2009).

melting point | Structure (SMILES)
216 to 218 °C | CCOCc1nc2c(N)nc3cc(-c4cccnc4)ccc3c2n1CCCCS(=O)(=O)NC [Example 369, Methyl 4-[4-amino-2-ethoxymethyl-7-(pyridin-3-yl)-1H-imidazo[4,5-c]quinolin-1-yl]butane-1-sulfonamide]
159 to 160 °C | CCOCc1nc2c(N)nc3cc(-c4cccnc4)ccc3c2n1CCCCCS(=O)(=O)N(C)C [Example 370, Dimethyl 5-[4-amino-2-ethoxymethyl-7-(pyridin-3-yl)-1H-imidazo[4,5-c]quinolin-1-yl]pentane-1-sulfonamide]
191 to 192 °C | CCOCc1nc2c(N)nc3cc(-c4cccnc4)ccc3c2n1CCCCCS(=O)(=O)NC [Example 371, Methyl 5-[4-amino-2-ethoxymethyl-7-(pyridin-3-yl)-1H-imidazo[4,5-c]quinolin-1-yl]pentane-1-sulfonamide]
150 to 152 °C | CCCC(=O)NCCCCn1c(COCC)nc2c(N)nc3cc(-c4cccnc4)ccc3c21 [Example 372, N-{4-[4-Amino-2-ethoxymethyl-7-(pyridin-3-yl)-1H-imidazo[4,5-c]quinolin-1-yl]butyl}butyramide]
200 to 202 °C | CCOCc1nc2c(N)nc3cc(-c4cccnc4)ccc3c2n1CCCCNC(=O)C(C)C [Example 373, N-{4-[4-Amino-2-ethoxymethyl-7-(pyridin-3-yl)-1H-imidazo[4,5-c]quinolin-1-yl]butyl}-2-methylpropanamide]
178 to 180 °C | CCCS(=O)(=O)NCCCCn1c(COCC)nc2c(N)nc3cc(-c4cccnc4)ccc3c21 [Example 376, N-{4-[4-Amino-2-ethoxymethyl-7-(pyridin-3-yl)-1H-imidazo[4,5-c]quinolin-1-yl]butyl}propane-1-sulfonamide]
190 to 192 °C | CCOCc1nc2c(N)nc3cc(-c4cccnc4)ccc3c2n1CCCCNC(=O)NC1CCCC1 [Example 377, N-{4-[4-Amino-2-ethoxymethyl-7-(pyridin-3-yl)-1H-imidazo[4,5-c]quinolin-1-yl]butyl}-N′-cyclopentylurea]
191 to 193 °C | CCCNC(=O)NCCCCn1c(COCC)nc2c(N)nc3cc(-c4cccnc4)ccc3c21 [Example 378, N-{4-[4-Amino-2-ethoxymethyl-7-(pyridin-3-yl)-1H-imidazo[4,5-c]quinolin-1-yl]butyl}-N′-propylurea]
192 to 194 °C | CCOCc1nc2c(N)nc3cc(-c4cccnc4)ccc3c2n1CCCCNC(=O)NC(C)C [Example 379, N-{4-[4-Amino-2-ethoxymethyl-7-(pyridin-3-yl)-1H-imidazo[4,5-c]quinolin-1-yl]butyl}-N′-(1-methylethyl)urea]
213 to 215 °C | CCOCc1nc2c(N)nc3cc(-c4cccnc4)ccc3c2n1CCNC(=O)C(C)C [Example 386, N-{2-[4-Amino-2-ethoxymethyl-7-(pyridin-3-yl)-1H-imidazo[4,5-c]quinolin-1-yl]ethyl}-2-methylpropanamide]
233 to 235 °C | CCOCc1nc2c(N)nc3cc(-c4cccnc4)ccc3c2n1CCNS(C)(=O)=O [Example 387, N-{2-[4-Amino-2-ethoxymethyl-7-(pyridin-3-yl)-1H-imidazo[4,5-c]quinolin-1-yl]ethyl}methanesulfonamide]
194 to 196 °C | CCOCc1nc2c(N)nc3cc(-c4cccnc4)ccc3c2n1CCNC(=O)NC(C)C [Example 388, N-{2-[4-Amino-2-ethoxymethyl-7-(pyridin-3-yl)-1H-imidazo[4,5-c]quinolin-1-yl]ethyl}-N′-(1-methylethyl)urea]
244 to 246 °C | CCOCc1nc2c(N)nc3cc(-c4cccnc4)ccc3c2n1CCN1CCCS1(=O)=O [Example 389, 1-[2-(1,1-Dioxo-1-isothiazolidin-2-yl)ethyl]-2-ethoxymethyl-7-(pyridin-3-yl)-1H-imidazo[4,5-c]quinolin-4-amine]
